Data on 13 compounds can be found in ChEMBL document CHEMBL1909046, “DrugMatrix in vitro pharmacology data”.

One data set has as its target Cytochrome P450 2C19 (Homo sapiens, UniProt P33261). The note with it: bti-tn-5b1-4.
The target of data set [1] is T1, C-X-C chemokine receptor type 1 (Homo sapiens, UniProt P25024). Further: in other assays of this panel Not Active means under 50% inhibition at 10 µM.
T1 sequence (P25024 whole entry): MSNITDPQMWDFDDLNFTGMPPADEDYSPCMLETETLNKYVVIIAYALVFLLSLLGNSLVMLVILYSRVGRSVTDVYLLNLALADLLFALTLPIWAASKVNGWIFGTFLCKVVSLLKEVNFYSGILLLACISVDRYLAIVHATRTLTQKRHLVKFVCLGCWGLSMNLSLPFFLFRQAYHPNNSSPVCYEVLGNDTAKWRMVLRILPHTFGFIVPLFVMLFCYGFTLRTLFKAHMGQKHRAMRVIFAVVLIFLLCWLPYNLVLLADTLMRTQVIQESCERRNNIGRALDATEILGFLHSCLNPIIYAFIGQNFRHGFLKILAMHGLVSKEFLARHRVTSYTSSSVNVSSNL

For data set [2], the target named is Aldo-keto reductase family 1 member B1 (Rattus norvegicus, UniProt P07943). As to the kind of experiment: biochemical. The format is tissue-based, Lens of camera-type eye.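 Further: inhibition of aldose reductase enzyme activity, measured with DL-glyceraldehyde as the substrate; in other assays of this panel Not Active means under 50% inhibition at 10 µM.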
Data set [3] in a line: DRUGMATRIX: Leukotriene, BLT (LTB4) radioligand binding (ligand: [3H]LTB4). It is filed as cell membranes, Membrane. Particulars: u-937, Not Active = under 50% inhibition at 10 µM.
Data set [4] is described as follows: DRUGMATRIX: Glutamate, Kainate radioligand binding (ligand: [3H] Kainic acid). The format is cell membranes, Rattus norvegicus, Wistar, Brain, Membrane. The note with it: Not Active = under 50% inhibition at 10 µM.
The target of data set [5] is Voltage-gated inwardly rectifying potassium channel KCNH2 (Homo sapiens, UniProt Q12809). Particulars: hek293. Further: in other assays of this panel Not Active means under 50% inhibition at 10 µM.
Sequence of Voltage-gated inwardly rectifying potassium channel KCNH2 (Q12809 whole entry): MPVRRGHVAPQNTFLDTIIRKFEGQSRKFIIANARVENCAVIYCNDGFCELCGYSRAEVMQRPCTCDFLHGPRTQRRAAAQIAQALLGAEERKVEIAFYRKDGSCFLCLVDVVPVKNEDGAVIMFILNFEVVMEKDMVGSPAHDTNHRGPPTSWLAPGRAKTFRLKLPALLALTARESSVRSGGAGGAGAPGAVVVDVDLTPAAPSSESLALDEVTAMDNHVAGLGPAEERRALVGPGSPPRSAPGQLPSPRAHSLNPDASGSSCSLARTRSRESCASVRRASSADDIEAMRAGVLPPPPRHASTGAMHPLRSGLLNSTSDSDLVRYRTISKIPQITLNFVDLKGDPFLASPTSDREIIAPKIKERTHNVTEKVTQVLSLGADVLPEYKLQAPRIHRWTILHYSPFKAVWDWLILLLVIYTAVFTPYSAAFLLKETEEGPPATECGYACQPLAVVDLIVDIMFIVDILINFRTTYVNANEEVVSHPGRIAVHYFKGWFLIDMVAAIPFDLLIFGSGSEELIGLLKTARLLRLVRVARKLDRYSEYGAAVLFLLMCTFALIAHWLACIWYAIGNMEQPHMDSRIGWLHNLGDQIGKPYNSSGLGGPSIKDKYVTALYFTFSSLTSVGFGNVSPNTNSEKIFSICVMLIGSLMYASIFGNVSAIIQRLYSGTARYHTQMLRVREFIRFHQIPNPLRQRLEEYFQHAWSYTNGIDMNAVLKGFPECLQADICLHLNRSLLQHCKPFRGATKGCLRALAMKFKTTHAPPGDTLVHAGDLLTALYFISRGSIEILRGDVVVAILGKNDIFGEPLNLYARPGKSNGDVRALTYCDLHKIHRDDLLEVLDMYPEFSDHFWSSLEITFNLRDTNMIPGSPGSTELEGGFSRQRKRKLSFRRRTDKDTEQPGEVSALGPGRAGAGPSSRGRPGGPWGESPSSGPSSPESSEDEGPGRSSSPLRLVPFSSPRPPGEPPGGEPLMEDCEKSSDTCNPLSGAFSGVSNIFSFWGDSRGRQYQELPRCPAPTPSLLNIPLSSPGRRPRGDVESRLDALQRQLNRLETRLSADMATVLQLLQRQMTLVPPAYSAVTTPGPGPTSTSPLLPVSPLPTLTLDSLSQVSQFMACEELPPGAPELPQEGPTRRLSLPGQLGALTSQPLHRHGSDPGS
Data set [6] deals with T2, Polyunsaturated fatty acid lipoxygenase ALOX15 (Oryctolagus cuniculus, UniProt P12530).
T2 sequence (P12530 whole entry): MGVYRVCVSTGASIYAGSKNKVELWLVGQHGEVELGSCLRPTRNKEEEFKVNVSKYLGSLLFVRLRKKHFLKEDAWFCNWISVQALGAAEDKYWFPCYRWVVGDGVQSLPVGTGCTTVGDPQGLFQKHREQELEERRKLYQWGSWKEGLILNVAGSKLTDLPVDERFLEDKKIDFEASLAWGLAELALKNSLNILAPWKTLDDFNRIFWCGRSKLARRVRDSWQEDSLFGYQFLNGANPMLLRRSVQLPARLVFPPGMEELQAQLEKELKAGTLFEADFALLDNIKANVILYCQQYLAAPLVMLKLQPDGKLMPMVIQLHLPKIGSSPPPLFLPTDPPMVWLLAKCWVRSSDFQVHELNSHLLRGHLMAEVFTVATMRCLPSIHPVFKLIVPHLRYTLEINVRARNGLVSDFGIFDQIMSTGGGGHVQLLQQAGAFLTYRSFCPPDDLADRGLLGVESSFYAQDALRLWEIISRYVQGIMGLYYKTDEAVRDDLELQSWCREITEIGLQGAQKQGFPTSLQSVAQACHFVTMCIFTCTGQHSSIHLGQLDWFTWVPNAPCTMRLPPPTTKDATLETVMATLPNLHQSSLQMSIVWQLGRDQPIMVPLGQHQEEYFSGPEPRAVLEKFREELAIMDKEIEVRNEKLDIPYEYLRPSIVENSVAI
The data set can be described thus: biochemical. The format is tissue-based, Reticulocytes.

For data set [7], the target named is T3, Cholecystokinin receptor type A (Homo sapiens, UniProt P32238). Further: in other assays of this panel Not Active means under 50% inhibition at 10 µM.
T3 sequence (P32238 whole entry): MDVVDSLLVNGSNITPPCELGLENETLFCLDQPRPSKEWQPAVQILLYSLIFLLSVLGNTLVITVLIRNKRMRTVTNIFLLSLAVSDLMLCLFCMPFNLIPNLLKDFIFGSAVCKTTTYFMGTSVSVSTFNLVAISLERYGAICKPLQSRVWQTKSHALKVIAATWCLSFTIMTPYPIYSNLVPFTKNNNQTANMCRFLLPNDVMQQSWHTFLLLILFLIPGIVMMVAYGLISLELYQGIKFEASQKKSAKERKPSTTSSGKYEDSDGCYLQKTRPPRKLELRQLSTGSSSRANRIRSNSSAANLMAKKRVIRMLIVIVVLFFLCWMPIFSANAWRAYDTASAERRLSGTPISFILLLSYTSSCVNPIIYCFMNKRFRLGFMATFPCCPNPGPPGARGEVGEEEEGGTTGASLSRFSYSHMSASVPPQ
The format is cell membranes, Membrane. Particulars: 1321-n1.

Sequence of Cytochrome P450 2C19 (P33261 whole entry): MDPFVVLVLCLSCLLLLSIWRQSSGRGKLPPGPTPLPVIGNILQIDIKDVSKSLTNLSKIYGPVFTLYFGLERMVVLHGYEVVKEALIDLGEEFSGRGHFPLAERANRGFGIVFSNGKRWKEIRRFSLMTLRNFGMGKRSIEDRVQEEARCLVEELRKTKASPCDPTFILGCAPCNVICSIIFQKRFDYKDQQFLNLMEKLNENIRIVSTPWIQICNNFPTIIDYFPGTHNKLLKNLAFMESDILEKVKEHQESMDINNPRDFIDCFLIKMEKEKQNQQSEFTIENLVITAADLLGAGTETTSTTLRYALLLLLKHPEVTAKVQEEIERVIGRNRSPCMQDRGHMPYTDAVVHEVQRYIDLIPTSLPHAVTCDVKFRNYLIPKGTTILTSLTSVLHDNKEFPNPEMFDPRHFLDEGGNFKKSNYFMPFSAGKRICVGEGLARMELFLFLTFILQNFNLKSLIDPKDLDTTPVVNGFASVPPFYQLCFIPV

In the case of `N[C@@H](Cc1ccc(O)c(O)c1)C(=O)O` [LEVODOPA], the IC50 result (at Cytochrome P450 2C19; in data set [1]; in data set [2]; in data set [3]; in data set [4]; in data set [5]) was “Not Active” throughout. Also, the results for the IC50 in data set [6] (read-out: IC50) and in data set [7] were 2260 nM and “Not Active”, respectively. In addition, the Ki entry (on Cytochrome P450 2C19; in data set [3]; in data set [4]; in data set [5]) was “Not Active” throughout.

With `O=NN(CCCl)C(=O)NC1CCCCC1` [LOMUSTINE], the IC50 entry (against Cytochrome P450 2C19; in data set [1]; in data set [2]; in data set [3]; in data set [4]; in data set [5]) was “Not Active” each time. The IC50 result in data set [6] (reticulocytes) and in data set [7] was “Not Active” each time. The Ki result (on Cytochrome P450 2C19; in data set [3]; in data set [4]; in data set [5]) was “Not Active” each time.

On to `Cn1ccnc1S` [METHIMAZOLE], for which the IC50 entry (at Cytochrome P450 2C19; in data set [1]; in data set [2]; in data set [3]; in data set [4]; in data set [5]) was “Not Active” in each case. The IC50 result in data set [6] (reticulocytes) and in data set [7] was “Not Active” each time. Moreover, the Ki result (at Cytochrome P450 2C19; in data set [3]; in data set [4]; in data set [5]) was “Not Active” throughout.

Consider `COc1nc(C)nc(Cl)c1NC1=NCCN1` [MOXONIDINE], for which the IC50 result (on Cytochrome P450 2C19; in data set [1]; in data set [2]; in data set [3]; in data set [4]; in data set [5]) was “Not Active” in each case. Also, the IC50 entry in data set [6] (reticulocytes) and in data set [7] was “Not Active” throughout. The Ki entry (at Cytochrome P450 2C19; in data set [3]; in data set [4]; in data set [5]) was “Not Active” in each case.

For the compound `COc1c(C)c2c(c(O)c1C/C=C(\C)CCC(=O)O)C(=O)OC2` [MYCOPHENOLIC ACID], the IC50 result (on Cytochrome P450 2C19; in data set [1]; in data set [2]; in data set [3]; in data set [4]; in data set [5]) was “Not Active” each time. Moreover, the IC50 result in data set [6] (reticulocytes) and in data set [7] was “Not Active” in each case. For the same compound, the Ki result (on Cytochrome P450 2C19; in data set [3]; in data set [4]; in data set [5]) was “Not Active” in each case.

Consider `O=c1ncn2nc(Sc3ccc(F)cc3F)ccc2c1-c1c(Cl)cccc1Cl` [NEFLAMAPIMOD], for which the IC50 result (on Cytochrome P450 2C19; in data set [1]; in data set [2]; in data set [3]; in data set [4]; in data set [5]) was “Not Active” each time. Besides, the IC50 result in data set [6] (reticulocytes) and in data set [7] was “Not Active” each time. In addition, the Ki result (at Cytochrome P450 2C19; in data set [3]; in data set [4]; in data set [5]) was “Not Active” throughout.

`CO[C@H]1/C=C/O[C@@]2(C)Oc3c(C)c(O)c4c(O)c(c(/C=N/N5CCN(C)CC5)c(O)c4c3C2=O)NC(=O)/C(C)=C\C=C\[C@H](C)[C@H](O)[C@@H](C)[C@@H](O)[C@@H](C)[C@H](OC(C)=O)[C@@H]1C` [RIFAMPIN]: the half-inhibitory concentration (IC50) result (against Cytochrome P450 2C19; in data set [1]; in data set [2]; in data set [3]; in data set [4]; in data set [5]) was “Not Active” in each case. In addition, the IC50 (commonly the concentration that inhibits the measured activity by half) was 2950 nM in data set [6] (read-out: IC50) and “Not Active” in data set [7]. Also, the Ki entry (on Cytochrome P450 2C19; in data set [3]; in data set [4]; in data set [5]) was “Not Active” in each case.

As to `C=CCC1(C(C)CCC)C(=O)NC(=O)NC1=O` (stereo unspecified) [SECOBARBITAL], the IC50 result (on Cytochrome P450 2C19; in data set [1]; in data set [2]; in data set [3]; in data set [4]; in data set [5]) was “Not Active” in each case. Moreover, the IC50 entry in data set [6] (reticulocytes) and in data set [7] was “Not Active” in each case. For the same compound, the inhibition constant Ki result (at Cytochrome P450 2C19; in data set [3]; in data set [4]; in data set [5]) was “Not Active” in each case.

Take `Cc1noc(NS(=O)(=O)c2ccc(N)cc2)c1C` [SULFISOXAZOLE]: the IC50 result (against Cytochrome P450 2C19; in data set [1]; in data set [2]; in data set [3]; in data set [4]; in data set [5]) was “Not Active” in each case. The IC50 result in data set [6] (reticulocytes) and in data set [7] was “Not Active” throughout. Besides, the inhibition constant Ki result (on Cytochrome P450 2C19; in data set [3]; in data set [4]; in data set [5]) was “Not Active” in each case.

Consider `CSc1ccc(/C=C2/C(C)=C(CC(=O)O)c3cc(F)ccc32)cc1` [SULINDAC SULFIDE], for which the IC50 result is “Not Active” against Cytochrome P450 2C19; “Not Active” in data set [1]; 84 nM in data set [2] (read-out: IC50); “Not Active” in data set [3]; “Not Active” in data set [4]; “Not Active” in data set [5]. Moreover, the IC50 entry in data set [6] (reticulocytes) and in data set [7] was “Not Active” in each case. Besides, the Ki entry (on Cytochrome P450 2C19; in data set [3]; in data set [4]; in data set [5]) was “Not Active” each time.

Regarding `Nc1c2c(nc3ccccc13)CCCC2` [TACRINE], the IC50 entry (on Cytochrome P450 2C19; in data set [1]; in data set [2]; in data set [3]; in data set [4]; in data set [5]) was “Not Active” in each case. Moreover, the IC50 result in data set [6] (reticulocytes) and in data set [7] was “Not Active” in each case. The Ki entry (on Cytochrome P450 2C19; in data set [3]; in data set [4]; in data set [5]) was “Not Active” each time.

For the compound `CC(C)N1CCN(c2ccc(OCC3COC(Cn4cncn4)(c4ccc(Cl)cc4Cl)O3)cc2)CC1` (stereo unspecified) [TERCONAZOLE], the IC50 entry is “Not Active” on Cytochrome P450 2C19; “Not Active” in data set [1]; “Not Active” in data set [2]; 24900 nM in data set [3] (read-out: IC50); “Not Active” in data set [4]; “Not Active” in data set [5]. Further, the IC50 is 2450 nM in data set [6] (read-out: IC50) and “Not Active” in data set [7]. The Ki (as a rule, the dissociation constant of the complex between target and ligand, obtained from inhibition or displacement) at Cytochrome P450 2C19 is “Not Active”; in data set [3] (read-out: Ki) it was 6320 nM; in data set [4], “Not Active”; in data set [5] it was “Not Active”.

For `NC[C@H]1CC[C@H](C(=O)O)CC1` [TRANEXAMIC ACID], the IC50 entry (against Cytochrome P450 2C19; in data set [1]; in data set [2]; in data set [3]; in data set [4]; in data set [5]) was “Not Active” throughout. The IC50 entry in data set [6] (reticulocytes) and in data set [7] was “Not Active” in each case. Besides, the Ki entry (on Cytochrome P450 2C19; in data set [3]; in data set [4]; in data set [5]) was “Not Active” in each case.
